Assay results taken from patent US12091601B2 (priority 2020, dated 2024).
Structures can show the parent of a compound that is named as a salt.

Assays:
[1] = Inhibition and re-activation of HF: quartz dissolution; settings: by themselves
Method: HF was inhibited by the addition of monoethanolamine (MEA), until no quartz (SiO2) was dissolved. A molar ratio of 1 MEA to HF or greater is necessary to inhibit HF's ability to dissolve quartz, and a ratio of 1.1 will used in further testing to provide a reasonable safety margin.
The inhibited HF solution can regain its quartz dissolving potential through the addition of an acidic solution, such as HCl.
To evaluate the performance of mud acids created with acid compositions comprising HCl:MEA in ratios of 4.4:1; 6.3:1; and 11.3:1, inhibited HF mud acids were prepared using HCl and acid compositions comprising HCl:MEA in ratios of 4.4:1; and 11.3:1 with various amount of free HCl (6 to 12%).

[2] = cited from earlier work

| Compound | quartz dissolved [1] | concentration above which precipitation occurs / solubility [2] [µg/mL] |
| --- | --- | --- |
| Cl [HCl] | essentially no quartz | – |
| F[Si-2](F)(F)(F)(F)F.[Na+].[Na+] [Na2SiF6] | – | 6400 |
